Assay results reported in PubChem BioAssay AID179 (DTP/NCI, 2004).
Calls of active or inactive are those of the source.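 The calls were made as follows: active = compounds giving half or more protection of infected cells from virus-caused growth loss, again on retest; inactive = the rest.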 Where a SMILES comes first, the peptide text is derived from it.

Test system: CEM cells HIV-1 protection, formazan growth assay
Assay: NCI AIDS Antiviral Assay
Settings: for IC50: measured here: growth of uninfected CEM cells
Procedure, shortened: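 Human CEM cells, uninfected and HIV-1-infected, received five drug concentrations, and growth was read by soluble formazan assay. Compounds giving at least 50% protection were retested; reproducible 100% protection defined confirmed active.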

SMILES | EC50 [µM] | IC50 [µM] | outcome
CSc1nc2c(c(N(C)C)n1)C(O)n1c(nc3ccccc31)S2 (stereo unspecified) | > 200 | > 200 | 
NC(=Nc1ccc(Br)cc1)/N=C(/N)Nc1cccc(S(=O)(=O)Nc2ncc(Cl)cn2)c1 | > 200 | > 200 | 
N#CC(C(=O)CCC(=O)Nc1ccc(Cl)c(Cl)c1)c1ccc(Cl)cc1 (stereo unspecified) | > 331 | > 331 | 
c1ccc2[nH]c(CNc3ccc(C4C[Se]N=N4)cc3)nc2c1 (stereo unspecified) | > 20.4 | > 20.4 | 
O=C1OC(C2Cc3ccc4c(c3C2=O)CCC4)c2ccccc21 (stereo unspecified) | > 200 | 81.3 | 
Nc1nc(SSc2nc(N)nc3c2ncn3C2CC(O)C(CO)O2)c2ncn(C3CC(O)C(CO)O3)c2n1 (stereo unspecified) | > 200 | 9.33 | 
CS(=O)(=O)c1ccc(NNc2cc(=O)[nH]c(=O)[nH]2)cc1 | > 200 | 70.8 | 
Cc1cnc(SCCN2CCN(C)CC2)nc1-c1cc2ccccc2s1 | > 646 | 1.29 | 
CCCCCCCCCCCCCCCCOC[C@H](COC(c1ccccc1)(c1ccccc1)c1ccccc1)O[P+](=S)OC (stereo partly specified) | > 100 | 57.5 | 
CC1=CC(O)(c2ccccn2)P(=O)(c2ccccc2)C=C1C (stereo unspecified) | > 794 | > 794 | 
Cc1ccc(Nc2nc(-c3ccc(-c4ccc([N+](=O)[O-])cc4)o3)cs2)cc1 | > 10 | > 10 | 
N#CCN1CCCN(CC#N)CCN(CC#N)CCCN(CC#N)CC1 | > 200 | 141 | 
CCn1c(=O)c2c3cc(O)ccc3oc2c2ccc(O)cc21 | > 200 | > 200 | 
CCOC(=O)N1CCN(c2c(N)nc(C)[nH]c2=O)CC1 | > 200 | > 200 | 
C[C@@H]1C[C@@]2(O)[C@@H]3C[C@H](F)C4=CC(=O)CC[C@]4(C)[C@H]3[C@@H](O)C[C@]2(C)[C@@]1(O)C(=O)CO | > 200 | 178 | 
Cc1ccc(SC(=O)N2C(=S)NC(=NC3CCCCC3)C23CCCCC3)cc1 | > 200 | 32.4 | 
N#CC1=C(N)Oc2c(ccc3cccnc23)C1c1ccccc1 (stereo unspecified) | > 120 | 1.7 | 
Cn1c(=O)n2c(-c3ccccc3)c(-c3ccccc3)n2c1=O | > 200 | 102 | 
CC(=O)N(C(=O)CC(=O)N/N=C\c1ccc(Br)c(N(CCC#N)CCC#N)c1)c1ccc(Cl)cc1 | > 200 | > 200 | 
O=C(O)c1cccc(P(=O)(O)O)c1 | > 200 | > 200 | 
CC(=O)[O-].CC(=O)[O-].O=C(N/N=C/c1cc(Cl)cc(Cl)c1O)c1ccncc1.[Ni+2] |  |  | inactive
N#Cc1ccc(N(O)C(=O)c2ccccc2)cc1 | > 200 | 46.8 | 

SMILES | EC50 [µM] | IC50 [µM] | outcome
CC1COC(c2cn[nH]c2C(N)=O)C1O (stereo unspecified) | > 200 | > 200 | 
Cc1cc2c(cc1C(=O)CCC(=O)O)CC1(C2)Cc2cc(C)c(C(=O)CCC(=O)O)cc2C1 | > 200 | > 200 | 
Cc1cc(C)nc(Nc2nc3ccc([N+](=O)[O-])cc3[nH]2)n1 | > 871 | 407 | 
N#Cc1c(N2CCCC2)nsc1NCc1ccccc1 | > 200 | > 200 | 
Nc1nc(Cl)cc(OCC2(CO)CC2)n1 | > 200 | > 200 | 
CCN(CC)C(=S)SCCCS(=O)(=O)O |  |  | inactive
NC(N)=NS(=O)(=O)c1ccc(Nc2c3ccccc3nc3c(C(=O)Nc4ccc(S(N)(=O)=O)cc4)cccc23)cc1 | 8.32 | 31.6 | 
Cc1cc(Cl)ccc1NC(=O)C(=O)C(C(=O)c1ccc2ccccc2c1)C1OC(=O)c2ccccc21 (stereo unspecified) | > 52.5 | 25.1 | 
c1ccc(N=C2SC(c3ccccc3)CN2C23CC4CC(CC(C4)C2)C3)cc1 (stereo unspecified) | > 200 | > 200 | 
O=C1OCC(Cc2ccc3c(c2)OCO3)[C@H]1Cc1ccccc1 (stereo partly specified) | > 200 | 186 | 
CCOC(=O)/C(C(N)=O)=C(/O)c1cnccn1 | > 200 | > 200 | 
Cn1c(O)c(C=Nc2ccc(Cl)cc2Cl)c(=O)n(C)c1=O | > 200 | > 200 | 
O=C/C(=C1/C=Cc2cc([N+](=O)[O-])ccc2S1)c1ccccc1 | > 200 | > 200 | 
CN(C)c1ccc(/C=C/c2ccnc3c(O)cccc23)cc1 | > 18.2 | 1.05 | 
O=C(c1ccccc1)C1(C(=O)c2ccccc2)/C(=N\O)C2CCC1C2 (stereo unspecified) | > 53.7 | 20.9 | 
CCCCSC1CCSc2c1ccc1ccccc21 (stereo unspecified) |  |  | inactive
COc1ccc(Nc2ccc3c4c(cccc24)C(=O)N(c2ccc(OC)cc2)C3=O)cc1 | > 200 | 31.6 | 
N#C/C(=C\c1ccc(O)c(O)c1)C(=O)N[C@@H]1CCC[C@@H](NC(=O)/C(C#N)=C/c2ccc(O)c(O)c2)C1 | > 200 | 12.3 | 
CC(C)(C)CP(CCP(C)(C)=S)CC(C)(C)C | > 44.7 | > 44.7 | 
COc1ccc(C[C@H]2COC(=O)[C@@H]2Cc2ccc(OC)c(OC)c2)cc1OC | > 200 | 123 | 
CCCCn1c(-c2ccccc2)cs/c1=N\Nc1nc2c(c(=O)n(C)c(=O)n2C)n1C | > 200 | 10.7 | 
CCC(C)C(=O)c1c(O)c(C/C=C(\C)CCC=C(C)C)c(O)c2c(C(O)CC)cc(=O)oc12 (stereo unspecified) | > 200 | 1.55 | 

SMILES | EC50 [µM] | IC50 [µM] | outcome
CC1(C)N=C(/C(C#N)=[N+](/[O-])C(=O)c2ccccc2)C(C)(C)N1O | > 200 | > 200 | 
COC1C(O)CC(=O)OC(C)C/C=C/C=C/C(OC2CCC(N(C)C)C(C)O2)C(C)CC(CC=O)C1OC1OC(C)C(OC2CC(C)(O)C(O)C(C)O2)C(N(C)C)C1O (stereo unspecified) | > 200 | > 200 | 
NC(CSCCSCCSCC(N)C(=O)O)C(=O)O (stereo unspecified) | > 56.2 | > 56.2 | 
Cc1cccc(N2C(c3ccccc3)c3ccc(C)cc3NS2=O)c1 (stereo unspecified) | > 257 | 151 | 
CCC[CH2][Sn]([CH2]CCC)([O]C(=O)c1cccc(F)c1)[O]C(=O)c1cccc(F)c1 | > 10.2 | 6.61 | 
CN(C)c1ccc(Cc2cc(C(C)(C)C)cc(C(C)(C)C)c2O)cc1 |  |  | inactive
O=C(Oc1ccc(OC(Oc2ccccc2)c2ccccc2)cc1)c1ccccc1 (stereo unspecified) | > 200 | 44.7 | 
CN(C)c1cccc2c(S(=O)(=O)NCC(=O)O)cccc12 |  |  | inactive
O=S1c2ccccc2SCSc2ccccc21 | > 200 | > 200 | 
CC1(CCC(=O)c2ccc3c(c2)OCO3)OCCO1 | > 97.7 | > 97.7 | 
O=C1CSC(=S)N1N1C(=O)CSC1=S | > 200 | > 200 | 
O=C(NCCCC1C2CCC(C2)C1CNC(=O)Nc1cccc(Cl)c1)Nc1cccc(Cl)c1 (stereo unspecified) | > 200 | 3.63 | 
CN(C)CCNC(=O)c1cccc2c(NCCN(C)C)c3ccccc3nc12 | > 20 | 2.09 | 
COc1ccc(CN=CN/C(C#N)=C(\N)C#N)cc1OC | > 200 | > 200 | 
O=c1oc2cc(O)ccc2c(O)c1C(c1cccnc1)c1c(O)c2ccc(O)cc2oc1=O |  |  | inactive
O=C(Nc1sccc1S(=O)(=O)c1ccc(Cl)cc1)C(F)(F)F | > 200 | 9.55 | 
N#C/C=C/c1ccc(Cl)cc1 | > 219 | > 219 | 
NC1=NN(c2ccccc2)C(=O)C1C(=O)CCC(=O)Nc1cccc(Cl)c1 (stereo unspecified) | > 339 | > 339 | 
COc1ccccc1S(=O)(=O)Sc1ccccc1[N+](=O)[O-] | > 81.3 | 25.7 | 
Cc1noc2c1CSC1=C2S(=O)(=O)N(C)c2ccccc21 | > 58.9 | > 58.9 | 
Cc1nc(-n2nc(-c3ccccc3)cc2-c2ccccc2)sc1C(/C=C/c1ccc([N+](=O)[O-])cc1)=N/NC(N)=S | > 33.1 | 26.9 | 
O=C(COc1ccc2c(=O)cc(-c3ccc(Cl)cc3)oc2c1)N1CCN(c2ccccc2)CC1 | 0.813 | 20.9 | 

SMILES | EC50 [µM] | IC50 [µM] | outcome
S=c1sc(-c2ccccc2)c[se]1 | > 50.1 | 29.5 | 
O=C(Cc1ccccc1)NN1C(=O)/C(=C\c2cccc([N+](=O)[O-])c2)SC1=Nc1ccccc1 | > 56.2 | > 56.2 | 
Nc1c2ccccc2nc2ccccc12 | > 200 | 2.19 | 
S=c1[nH][nH]c(=S)c2c1[nH]c(=S)n2Cc1ccccc1 | 41.7 | 43.7 | 
CC(C)CC(NC(=O)CN)C(=O)NC(C)C(=O)NC(C)C(=O)NC(CO)C(=O)NC(C)C(N)=O (stereo unspecified) (H-GLAASA-NH2; configuration not given here) |  |  | inactive
CCC1=C(c2cccc(OC(C)=O)c2)C(C)c2ccc(OC(C)=O)cc21 (stereo unspecified) | > 200 | 7.41 | 
Cc1c(C#N)c(N)n(C2OCC(O)C(O)C2O)c(=S)c1C#N (stereo unspecified) |  |  | inactive
CSc1nc2c(c(=O)n1C)N=C(c1ccc(Cl)cc1)CC(c1ccccc1)N2 (stereo unspecified) | > 200 | 18.2 | 
COC(=O)C1(C)OC(C)=NC1(C(=O)OC)C(=O)OC (stereo unspecified) | > 200 | > 200 | 
N#Cc1c(C#N)c(-c2ccccc2)n(/N=C\c2ccccc2)c1N | > 200 | 14.5 | 
O=c1ccc2cc(O)c(O)cc2o1 | > 1410 | 93.3 | 
CC(C)(C)OC(=O)NCCC1SC2C=CC1C2 (stereo unspecified) | > 200 | 107 | 
COc1ccccc1/C=C(\C#N)C(=O)c1ccccc1 | > 20 | > 20 | 
O=c1sc2ccccc2n1CC1CS1 (stereo unspecified) | > 302 | 11 | 
COc1ccc(-n2c(Cn3nnc(-c4cccnc4)n3)nn(C3OC(COC(=O)c4ccccc4)C(OC(=O)c4ccccc4)C3OC(=O)c3ccccc3)c2=S)cc1 (stereo unspecified) | > 100 | > 100 | 
Cc1c(N(C)C)ccc2c(=O)c3cccc(CC(=O)O)c3oc12 | > 741 | 282 | 
COC(=O)C(=O)C(/C=N/C(=S)N=Nc1c(O)[nH]c2ccccc12)=C(\O)c1c(C)[nH]c2ccccc12 | 26.9 | 105 | 
CCN(c1ccccc1)c1cc(=O)nc2ccccn12 | > 200 | > 200 | 
CC(=O)Nc1ccc(CNc2cc(=O)n(C)c(=O)[nH]2)cc1 | > 200 | > 200 | 
CCCCCC/C=C\CCCCCCCCC(=O)c1cccc(OC)c1OC | > 200 | > 200 | 
O=C1C=CC(=O)c2c1ccc1c3ccccc3n(-c3ccccc3)c21 | > 22.4 | 1.07 | 
